From ChEMBL document CHEMBL5465560, “Selectivity Literature for EUbOPEN Chemogenomic Library” (2024)

Legend:
[1] = molecular target: Dual specificity protein kinase CLK4 (Homo sapiens, UniProt Q9HAZ1); test: Selectivity interaction (KinomeScan (DiscoverX)) EUB0000666a CLK4; settings: at 10 µM
[2] = molecular target: Homeodomain-interacting protein kinase 1 (Homo sapiens, UniProt Q86Z02); test: Selectivity interaction (KinomeScan (DiscoverX)) EUB0001079a HIPK1; settings: at 1 µM
[3] = molecular target: MAP/microtubule affinity-regulating kinase 3 (Homo sapiens) (UniProt P27448); test: Selectivity interaction (ActivX KiNativ screen (kinase selectivity in THP-1 cell lysates)) EUB0000639a MARK3; assay type: subcellular; settings: lysate, at 0.2 µM
[4] = molecular target: Calcium/calmodulin-dependent protein kinase type II subunit delta (Homo sapiens) (UniProt Q13557); test: Selectivity interaction (ActivX KiNativ screen (kinase selectivity in THP-1 cell lysates)) EUB0000639a CAMK2D; assay type: subcellular; settings: lysate
[5] = molecular target: T1, Inhibitor of nuclear factor kappa-B kinase subunit alpha (Homo sapiens) (UniProt O15111); test: Selectivity interaction (KinomeScan (DiscoverX)) EUB0000595a CHUK; settings: at 10 µM
T1 sequence (whole entry): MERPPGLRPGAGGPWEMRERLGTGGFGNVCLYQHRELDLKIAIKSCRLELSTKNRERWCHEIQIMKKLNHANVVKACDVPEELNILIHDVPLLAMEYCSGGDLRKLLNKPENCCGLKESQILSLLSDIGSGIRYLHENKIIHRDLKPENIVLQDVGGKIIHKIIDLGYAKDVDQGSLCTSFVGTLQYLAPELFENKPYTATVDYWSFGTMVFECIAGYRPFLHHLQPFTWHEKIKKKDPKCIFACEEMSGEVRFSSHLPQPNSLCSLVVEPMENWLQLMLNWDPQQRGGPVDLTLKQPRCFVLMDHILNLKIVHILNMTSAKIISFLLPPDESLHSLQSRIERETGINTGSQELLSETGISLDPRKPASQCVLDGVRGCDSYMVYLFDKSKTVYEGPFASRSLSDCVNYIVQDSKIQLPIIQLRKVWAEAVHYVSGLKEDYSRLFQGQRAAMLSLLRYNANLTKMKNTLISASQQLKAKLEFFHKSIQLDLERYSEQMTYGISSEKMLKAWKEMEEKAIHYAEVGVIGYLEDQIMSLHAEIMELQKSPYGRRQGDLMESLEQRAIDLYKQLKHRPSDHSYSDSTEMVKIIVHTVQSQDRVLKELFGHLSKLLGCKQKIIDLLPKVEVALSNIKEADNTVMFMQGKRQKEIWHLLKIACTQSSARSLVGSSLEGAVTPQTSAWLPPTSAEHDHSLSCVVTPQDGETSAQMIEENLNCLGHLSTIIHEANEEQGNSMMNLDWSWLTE

[6] = molecular target: T2, Cytoplasmic tyrosine-protein kinase BMX (Homo sapiens) (UniProt P51813); test: Selectivity interaction (KinomeScan (DiscoverX)) EUB0000045b BMX
T2 sequence (whole entry): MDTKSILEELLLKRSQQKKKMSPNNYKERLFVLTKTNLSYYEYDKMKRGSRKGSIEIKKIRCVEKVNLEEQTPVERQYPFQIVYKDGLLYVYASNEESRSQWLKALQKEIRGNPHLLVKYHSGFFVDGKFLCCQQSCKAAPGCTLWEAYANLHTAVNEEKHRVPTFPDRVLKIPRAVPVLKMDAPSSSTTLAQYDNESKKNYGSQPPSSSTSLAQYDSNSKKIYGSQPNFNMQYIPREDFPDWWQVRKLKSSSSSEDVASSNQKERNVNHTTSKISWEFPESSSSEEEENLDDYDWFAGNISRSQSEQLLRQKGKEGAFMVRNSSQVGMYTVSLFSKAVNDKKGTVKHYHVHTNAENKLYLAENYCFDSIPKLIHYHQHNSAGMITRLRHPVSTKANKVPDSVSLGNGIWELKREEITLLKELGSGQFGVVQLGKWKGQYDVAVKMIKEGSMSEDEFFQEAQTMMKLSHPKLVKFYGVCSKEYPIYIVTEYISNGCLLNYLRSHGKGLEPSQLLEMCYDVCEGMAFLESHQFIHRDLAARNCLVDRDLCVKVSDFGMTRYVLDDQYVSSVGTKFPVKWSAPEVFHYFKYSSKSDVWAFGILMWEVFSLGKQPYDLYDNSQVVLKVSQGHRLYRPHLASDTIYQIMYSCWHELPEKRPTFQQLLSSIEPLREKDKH

[7] = molecular target: Ribosomal protein S6 kinase alpha-4 (Homo sapiens) (UniProt O75676); test: Selectivity interaction (KinomeScan (DiscoverX)) EUB0001619a RPS6KA4; settings: at 1 µM
[8] = molecular target: T3, Inhibitor of nuclear factor kappa-B kinase subunit beta (Homo sapiens) (UniProt O14920); test: Selectivity interaction (KinomeScan (DiscoverX)) EUB0000655a IKBKB; settings: at 10 µM
T3 sequence (whole entry): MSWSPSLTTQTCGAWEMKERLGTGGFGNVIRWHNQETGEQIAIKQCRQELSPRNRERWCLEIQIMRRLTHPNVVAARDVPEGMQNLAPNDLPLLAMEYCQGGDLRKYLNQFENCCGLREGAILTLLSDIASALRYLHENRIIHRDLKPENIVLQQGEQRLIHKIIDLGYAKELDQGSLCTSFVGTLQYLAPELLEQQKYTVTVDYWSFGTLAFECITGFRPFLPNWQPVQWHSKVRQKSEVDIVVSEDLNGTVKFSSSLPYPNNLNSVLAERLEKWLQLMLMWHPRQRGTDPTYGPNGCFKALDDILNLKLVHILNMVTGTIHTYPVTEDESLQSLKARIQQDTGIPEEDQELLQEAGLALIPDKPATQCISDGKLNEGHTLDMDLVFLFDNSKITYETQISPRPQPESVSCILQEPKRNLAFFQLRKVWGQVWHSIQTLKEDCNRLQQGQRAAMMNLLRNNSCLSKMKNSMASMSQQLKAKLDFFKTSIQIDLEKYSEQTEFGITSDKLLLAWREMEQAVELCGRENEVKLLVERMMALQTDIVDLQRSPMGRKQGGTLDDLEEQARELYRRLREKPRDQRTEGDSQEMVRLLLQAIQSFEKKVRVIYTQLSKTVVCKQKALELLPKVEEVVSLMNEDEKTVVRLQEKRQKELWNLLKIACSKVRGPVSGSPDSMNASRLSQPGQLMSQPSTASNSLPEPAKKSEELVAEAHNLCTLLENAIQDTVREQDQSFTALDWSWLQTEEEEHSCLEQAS

[9] = molecular target: Activin receptor type-2B (Homo sapiens) (UniProt Q13705); test: Selectivity interaction (KinomeScan (DiscoverX)) EUB0000607a ACVR2B; settings: at 10 µM
[10] = molecular target: Mitogen-activated protein kinase kinase kinase kinase 5 (Homo sapiens) (UniProt Q9Y4K4); test: Selectivity interaction (KinomeScan (DiscoverX)) EUB0000607a MAP4K5; settings: at 10 µM
Sequence of Mitogen-activated protein kinase kinase kinase kinase 5 (Homo sapiens) (Q9Y4K4 whole entry, looked up): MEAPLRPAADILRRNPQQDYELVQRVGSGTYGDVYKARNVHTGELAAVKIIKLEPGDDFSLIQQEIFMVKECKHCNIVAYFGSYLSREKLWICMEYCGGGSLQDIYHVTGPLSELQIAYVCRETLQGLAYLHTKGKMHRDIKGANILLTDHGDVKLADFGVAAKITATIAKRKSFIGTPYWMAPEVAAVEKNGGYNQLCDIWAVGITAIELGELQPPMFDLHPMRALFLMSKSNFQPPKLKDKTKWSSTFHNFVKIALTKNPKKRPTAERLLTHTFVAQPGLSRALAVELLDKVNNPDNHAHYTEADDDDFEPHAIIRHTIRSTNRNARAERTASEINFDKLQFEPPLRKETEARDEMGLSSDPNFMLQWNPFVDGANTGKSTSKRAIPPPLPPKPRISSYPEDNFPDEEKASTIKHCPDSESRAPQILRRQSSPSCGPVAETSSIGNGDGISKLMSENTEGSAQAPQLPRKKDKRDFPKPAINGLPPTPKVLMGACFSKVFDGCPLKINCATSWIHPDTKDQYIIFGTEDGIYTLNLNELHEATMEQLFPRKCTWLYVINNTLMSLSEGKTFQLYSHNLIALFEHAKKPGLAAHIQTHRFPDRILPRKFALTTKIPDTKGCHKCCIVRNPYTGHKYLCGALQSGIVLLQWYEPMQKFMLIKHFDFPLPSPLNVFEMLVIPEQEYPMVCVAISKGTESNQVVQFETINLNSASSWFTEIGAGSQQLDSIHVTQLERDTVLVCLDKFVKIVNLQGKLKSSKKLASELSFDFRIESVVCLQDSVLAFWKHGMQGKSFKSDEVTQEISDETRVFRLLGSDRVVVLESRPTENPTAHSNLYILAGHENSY

Sequence of Calcium/calmodulin-dependent protein kinase type II subunit delta (Homo sapiens) (Q13557 whole entry): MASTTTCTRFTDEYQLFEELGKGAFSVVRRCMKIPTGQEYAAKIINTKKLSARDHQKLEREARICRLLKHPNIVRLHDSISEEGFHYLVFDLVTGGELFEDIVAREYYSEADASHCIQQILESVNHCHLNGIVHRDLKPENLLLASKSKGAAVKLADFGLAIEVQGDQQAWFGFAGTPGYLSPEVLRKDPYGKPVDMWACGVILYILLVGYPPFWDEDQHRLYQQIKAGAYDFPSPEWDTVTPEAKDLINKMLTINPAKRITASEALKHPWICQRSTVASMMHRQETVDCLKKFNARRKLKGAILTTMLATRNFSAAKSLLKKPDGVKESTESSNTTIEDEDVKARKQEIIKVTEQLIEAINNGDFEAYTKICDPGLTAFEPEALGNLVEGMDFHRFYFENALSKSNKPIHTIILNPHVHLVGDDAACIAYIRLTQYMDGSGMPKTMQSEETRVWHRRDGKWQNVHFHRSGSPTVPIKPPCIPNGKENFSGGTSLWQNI
Sequence of Dual specificity protein kinase CLK4 (Q9HAZ1 whole entry, looked up): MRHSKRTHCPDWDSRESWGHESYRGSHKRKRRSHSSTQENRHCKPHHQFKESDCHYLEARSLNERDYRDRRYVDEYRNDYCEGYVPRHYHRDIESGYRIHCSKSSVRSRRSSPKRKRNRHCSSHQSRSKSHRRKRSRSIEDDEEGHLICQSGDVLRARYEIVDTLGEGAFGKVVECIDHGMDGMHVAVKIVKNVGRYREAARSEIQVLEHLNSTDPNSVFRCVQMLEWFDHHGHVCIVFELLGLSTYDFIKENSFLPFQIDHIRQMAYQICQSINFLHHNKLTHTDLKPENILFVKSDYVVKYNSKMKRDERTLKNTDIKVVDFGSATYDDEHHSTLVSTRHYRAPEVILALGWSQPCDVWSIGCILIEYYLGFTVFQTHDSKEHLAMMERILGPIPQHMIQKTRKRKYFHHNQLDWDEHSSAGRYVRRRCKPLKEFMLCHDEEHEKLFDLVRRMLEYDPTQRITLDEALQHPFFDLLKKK
Sequence of Ribosomal protein S6 kinase alpha-4 (Homo sapiens) (O75676 whole entry, looked up): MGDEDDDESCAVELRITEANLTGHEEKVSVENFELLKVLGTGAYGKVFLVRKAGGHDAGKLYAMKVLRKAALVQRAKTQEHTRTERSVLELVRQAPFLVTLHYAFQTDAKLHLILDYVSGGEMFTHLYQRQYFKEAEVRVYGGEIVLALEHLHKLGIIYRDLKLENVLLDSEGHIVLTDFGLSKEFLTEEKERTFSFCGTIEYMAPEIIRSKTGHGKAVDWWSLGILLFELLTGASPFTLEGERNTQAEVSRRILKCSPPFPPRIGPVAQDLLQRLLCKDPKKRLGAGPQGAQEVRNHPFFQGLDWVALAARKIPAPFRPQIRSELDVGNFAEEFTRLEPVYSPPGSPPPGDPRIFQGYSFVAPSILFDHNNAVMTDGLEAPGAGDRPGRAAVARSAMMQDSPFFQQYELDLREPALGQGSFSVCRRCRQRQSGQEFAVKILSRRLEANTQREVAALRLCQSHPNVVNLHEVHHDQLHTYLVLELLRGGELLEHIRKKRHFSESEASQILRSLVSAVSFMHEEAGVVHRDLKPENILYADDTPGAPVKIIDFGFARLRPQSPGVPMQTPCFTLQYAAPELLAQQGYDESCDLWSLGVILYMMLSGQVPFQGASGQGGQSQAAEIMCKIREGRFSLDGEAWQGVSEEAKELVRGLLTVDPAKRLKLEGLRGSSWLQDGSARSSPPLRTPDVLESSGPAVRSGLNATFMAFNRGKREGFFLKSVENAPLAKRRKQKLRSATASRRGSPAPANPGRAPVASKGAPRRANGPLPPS
Sequence of Homeodomain-interacting protein kinase 1 (Q86Z02 whole entry, looked up): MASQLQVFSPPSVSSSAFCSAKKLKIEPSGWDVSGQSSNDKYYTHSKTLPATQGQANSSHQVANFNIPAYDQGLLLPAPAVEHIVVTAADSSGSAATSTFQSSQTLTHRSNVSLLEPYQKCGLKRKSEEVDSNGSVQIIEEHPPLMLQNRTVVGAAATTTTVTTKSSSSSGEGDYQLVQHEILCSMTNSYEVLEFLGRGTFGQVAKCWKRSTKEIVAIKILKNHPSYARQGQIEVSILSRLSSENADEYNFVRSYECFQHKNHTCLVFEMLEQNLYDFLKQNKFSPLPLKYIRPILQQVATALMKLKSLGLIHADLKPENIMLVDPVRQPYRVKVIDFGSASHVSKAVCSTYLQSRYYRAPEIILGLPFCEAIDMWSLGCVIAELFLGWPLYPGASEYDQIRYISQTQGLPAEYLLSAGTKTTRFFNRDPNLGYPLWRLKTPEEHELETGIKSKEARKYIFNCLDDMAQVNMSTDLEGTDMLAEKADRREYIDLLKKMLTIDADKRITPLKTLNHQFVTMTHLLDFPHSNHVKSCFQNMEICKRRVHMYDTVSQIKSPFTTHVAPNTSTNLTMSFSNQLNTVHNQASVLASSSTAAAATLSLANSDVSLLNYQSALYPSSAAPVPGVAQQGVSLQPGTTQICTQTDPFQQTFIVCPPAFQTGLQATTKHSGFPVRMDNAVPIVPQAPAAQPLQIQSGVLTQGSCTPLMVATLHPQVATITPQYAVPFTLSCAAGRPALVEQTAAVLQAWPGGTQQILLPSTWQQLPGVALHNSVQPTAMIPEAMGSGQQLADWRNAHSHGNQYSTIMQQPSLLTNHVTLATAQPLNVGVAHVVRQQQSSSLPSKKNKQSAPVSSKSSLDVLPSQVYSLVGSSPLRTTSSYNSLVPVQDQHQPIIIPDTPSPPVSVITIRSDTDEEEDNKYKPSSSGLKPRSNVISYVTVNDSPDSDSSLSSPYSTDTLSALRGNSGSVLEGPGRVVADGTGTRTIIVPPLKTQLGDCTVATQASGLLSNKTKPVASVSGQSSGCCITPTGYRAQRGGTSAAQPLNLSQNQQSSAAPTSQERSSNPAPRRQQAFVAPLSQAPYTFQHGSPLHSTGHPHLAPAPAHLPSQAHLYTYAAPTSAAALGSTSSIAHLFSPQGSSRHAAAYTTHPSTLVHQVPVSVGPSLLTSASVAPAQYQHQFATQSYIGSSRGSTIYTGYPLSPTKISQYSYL
Sequence of MAP/microtubule affinity-regulating kinase 3 (Homo sapiens) (P27448 whole entry, looked up): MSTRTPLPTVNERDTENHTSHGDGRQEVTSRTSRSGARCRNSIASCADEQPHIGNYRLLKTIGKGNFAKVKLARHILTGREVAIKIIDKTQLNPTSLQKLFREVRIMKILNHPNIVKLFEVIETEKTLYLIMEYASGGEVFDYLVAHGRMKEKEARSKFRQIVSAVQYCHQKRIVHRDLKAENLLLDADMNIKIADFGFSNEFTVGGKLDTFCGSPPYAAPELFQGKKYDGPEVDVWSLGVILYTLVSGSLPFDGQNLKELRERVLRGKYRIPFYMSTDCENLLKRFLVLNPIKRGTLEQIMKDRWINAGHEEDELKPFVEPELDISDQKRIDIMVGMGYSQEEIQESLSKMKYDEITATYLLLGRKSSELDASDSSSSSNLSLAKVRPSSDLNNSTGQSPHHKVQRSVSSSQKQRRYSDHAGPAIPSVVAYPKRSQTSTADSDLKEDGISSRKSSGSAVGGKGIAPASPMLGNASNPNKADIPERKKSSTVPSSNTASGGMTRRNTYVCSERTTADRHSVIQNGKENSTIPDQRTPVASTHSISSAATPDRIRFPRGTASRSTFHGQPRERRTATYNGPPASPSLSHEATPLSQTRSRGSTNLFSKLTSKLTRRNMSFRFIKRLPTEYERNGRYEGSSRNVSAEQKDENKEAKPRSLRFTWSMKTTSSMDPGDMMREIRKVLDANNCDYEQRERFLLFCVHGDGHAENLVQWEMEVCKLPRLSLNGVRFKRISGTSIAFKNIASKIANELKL
Sequence of Activin receptor type-2B (Homo sapiens) (Q13705 whole entry): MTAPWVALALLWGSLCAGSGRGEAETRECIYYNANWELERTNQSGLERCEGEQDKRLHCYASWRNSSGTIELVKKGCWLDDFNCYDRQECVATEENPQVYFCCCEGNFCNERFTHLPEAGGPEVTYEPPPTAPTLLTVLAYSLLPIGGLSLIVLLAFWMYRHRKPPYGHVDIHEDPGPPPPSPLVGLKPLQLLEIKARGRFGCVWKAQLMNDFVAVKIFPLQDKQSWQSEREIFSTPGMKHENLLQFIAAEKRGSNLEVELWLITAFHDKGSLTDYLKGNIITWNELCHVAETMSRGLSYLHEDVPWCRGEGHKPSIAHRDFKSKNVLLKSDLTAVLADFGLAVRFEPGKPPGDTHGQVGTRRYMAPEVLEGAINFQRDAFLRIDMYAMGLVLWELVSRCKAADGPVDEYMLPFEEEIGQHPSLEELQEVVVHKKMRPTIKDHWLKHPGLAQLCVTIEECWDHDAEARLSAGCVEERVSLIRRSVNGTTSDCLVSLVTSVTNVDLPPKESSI

SMILES: O=C(NOC[C@H](O)CO)c1ccc(F)c(F)c1Nc1ccc(I)cc1F
- % of control [1]: 89%

SMILES: Nc1cnc(N2CCc3cc(S(=O)(=O)Nc4c(F)cc(Cl)cc4F)cc(N4CCCC4=O)c32)nc1 [TP-020n]
- % of control [2]: 91%

SMILES: CC[C@@H]1[C@H](F)C(=O)N[C@@H]1COc1nccc2cc(C(N)=O)c(OC)cc12 [ZIMLOVISERTIB]
- % of inhibition [3]: 19.8%
- % of inhibition ([4]; at 0.01 µM): 14.2%
- % of inhibition ([4]; at 0.04 µM): 9.6%
- % of inhibition ([4]; at 0.2 µM): 16.3%
- % of inhibition ([4]; at 1 µM): 36.4%
- % of inhibition ([4]; at 5 µM): 61.2%

SMILES: COCC(=O)NC/C=C/c1ccc2ncnc(Nc3ccc(Oc4ccc(C)nc4)c(C)c3)c2c1 [CP-724714]
- % of control [5]: 100%

SMILES: C=CC(=O)Nc1cc(-n2c(=O)ccc3cnc4ccc(-c5ccc(NS(C)(=O)=O)cc5)cc4c32)ccc1C
- % of control ([6]; at 1 µM): 29%
- % of control ([6]; at 10 µM): 6%

SMILES: N#Cc1cccc(-c2c[nH]c3ncnc(N4CCOCC4)c23)c1
- % of control [7]: 71%

SMILES: CN(C)CCOc1ccc(-c2nc(-c3ccncc3)c(-c3ccc4c(c3)CC/C4=N\O)[nH]2)cc1
- % of control [8]: 100%

SMILES: CNC(=O)Nc1ccc(-c2nc(N3CC4CCC(C3)O4)c3cnn(C4CCC5(CC4)OCCO5)c3n2)cc1
- % of control [9]: 77%
- % of control [10]: 83%
